Patent publication US20210206763A1, “Anti-Proliferative Agents” (FEMTOGENIX LIMITED, priority 2015, published 2021)

Experiments:
Type in all cases: cell-based
[1] = test system: MCF-7 (HER2−); experiment: In vitro cytotoxicity of ADCs; details: Homo sapiens, MCF7; 72 hour incubation
Protocol: (§1) The resulting ADCs were evaluated in vitro against relevant antigen positive cell-lines.

[2] = test system: ZR75-1 (HER2++) (Trastuzumab resistant); experiment: In vitro cytotoxicity of ADCs; details: Homo sapiens, ZR-75-1; 72 hour incubation
Protocol: as §1

[3] = test system: SK-BR-3 (HER2+++); experiment: In vitro cytotoxicity of ADCs; details: Homo sapiens, 72 hour incubation
Protocol: as §1

[4] = test system: SK-MEL-5 (Melanoma); experiment: In vitro cytotoxicity of 41, cancer cell-line panel; details: Homo sapiens, 72 hour incubation
Protocol: (§2) Tumor cell lines were maintained in RPMI1640 medium supplemented with 10% heat-inactivated fetal bovine serum, 2 mM L-glutamine and 1 mM sodium pyruvate. 1800 cells per well were seeded in a volume of 180 μl in a 96-well flat bottom polystyrene plate. The cells were allowed to adhere overnight at 37° C. in a CO2 incubator. Ligands were initially formulated in DMSO, and stocks stored at −80° C. They were then further formulated at lox concentration in RPMI1640 medium. 20 ul of diluted samples were added into each treatment well. On each plate, blank wells with no cells, and untreated wells containing cells, were included. Plates were then cultured at 37° C. in a CO2 incubator for 72 hrs. Cytotoxicity was evaluated using a tetrazolium salt-based assay, the MIT assay. After 72 hours, the supernatant was removed from each well and 200 μl of a sterile filtered 500 μg/ml MTT solution in water added to each well. The plates were then incubated at 37° C. in a CO2 incubator for 4 hrs. The supernatant was then removed and the formazan crystals formed solubilized by adding 15(411 of DMSO to each well. The plate was then read on a plate reader at 540 nm, and percentage cell survival calculated as follows: ((mean absorbance treated wells at concentration x−mean absorbance blank wells)÷(mean absorbance untreated wells at concentration x−mean absorbance blank wells))×100. Data were plotted as concentration in nM vs. % cell survival in Microsoft Excel, and IC50 values (concentration where cell survival is reduced by a half) were determined from the graph.

[5] = test system: Calu-3 (Lung); experiment: as above; details: Homo sapiens, 72 hour incubation
Protocol: as §2

[6] = test system: AGS (Gastric); experiment: as above; details: 72 hour incubation
Protocol: as §2

[7] = test system: SW480 (Colorectal); experiment: as above; details: Homo sapiens, 72 hour incubation
Protocol: as §2

[8] = test system: BxPC3 (Pancreas); experiment: as above; details: Homo sapiens, BXPC-3; 72 hour incubation
Protocol: as §2

[9] = test system: SK-HEP-1 (Liver); experiment: as above; details: Homo sapiens, SK-HEP1; 72 hour incubation
Protocol: as §2

[10] = test system: HL60 (APML); experiment: as above; details: Homo sapiens, HL-60; 72 hour incubation
Protocol: as §2

[11] = test system: A375 (Skin); experiment: as above; details: Homo sapiens, A-375; 72 hour incubation
Protocol: as §2

[12] = test system: 786-O (Renal Cell, CD70); experiment: as above; details: Homo sapiens, 786-0; 72 hour incubation
Protocol: as §2

[13] = test system: A549 (Lung); experiment: as above; details: Homo sapiens, 72 hour incubation
Protocol: as §2

[14] = test system: AML2 (AML); experiment: as above; details: 72 hour incubation
Protocol: as §2

[15] = test system: LnCap (Prostate); experiment: as above; details: Homo sapiens, 72 hour incubation
Protocol: as §2

[16] = test system: EC Cancer Stem Cell (Cancer stem cells); experiment: as above; details: 72 hour incubation
Protocol: as §2

[17] = test system: PC3 (Prostate); experiment: as above; details: 72 hour incubation
Protocol: as §2

| Structure (SMILES) | IC50 [1] [pM] | IC50 [2] [pM] | IC50 [3] [pM] | IC50 [4] [pM] | IC50 [5] [pM] | IC50 [6] [pM] | IC50 [7] [pM] | IC50 [8] [pM] | IC50 [9] [pM] | IC50 [10] [pM] | IC50 [11] [pM] | IC50 [12] [pM] | IC50 [13] [pM] | IC50 [14] [pM] | IC50 [15] [pM] | IC50 [16] [pM] | IC50 [17] [pM] |
| --- | --- | --- | --- | --- | --- | --- | --- | --- | --- | --- | --- | --- | --- | --- | --- | --- | --- |
| COc1cc2c(cc1OCCCC(=O)Nc1cc(C(=O)Nc3ccc(-c4cc(C(=O)Nc5ccc(N)cc5)n(C)c4)cc3)n(C)c1)N=C[C@@H]1CCCCN1C2=O [Compound 41, (S)—N-(4-aminophenyl)-4-(4-(4-(4-((2-methoxy-12-oxo-6a,7,8,9,10,12-hexahydrobenzo[e]pyrido[1,2-a][1,4]diazepin-3-yl)oxy)butanamido)-1-methyl-1H-pyrrole-2-carboxamido)phenyl)-1-methyl-1H-pyrrole-2-carboxamide] | 289 | 630 | 86 |  |  |  |  |  |  |  |  |  |  |  |  |  |  |
| COc1cc2c(cc1OCCCC(=O)Nc1cc(C(=O)Nc3ccc(-c4cc(C(=O)Nc5ccc(N)cc5)n(C)c4)cc3)n(C)c1)N=C[C@@H]1CCCCN1C2=O [Compound 41] |  |  |  | 390 | 650 | 70 | 290 | 430 | 320 | 9 | 280 | 530 | 180 | 16 | 470 | 2640 | 360 |
